Values belong to the molecule of their own block, whether it stands above or below them.
How the values were obtained:
Type in all cases: biochemical
FAAH = FAAH (Mus musculus (Mouse), UniProt O08914); experiment: In vitro competitive activity-based protein profiling, mouse proteomes (brain membrane fraction or cell lysates); conditions: mouse proteome, read-out: FAAH % inh. 1 μM (mouse)
Description: (§1) In Vitro Competitive Activity-Based Protein Profiling.
(§2) Proteomes (mouse brain membrane fraction or cell lysates for mouse assays; human prefrontal cortex or PC3 cell membrane fractions for human assays) (50 μL, 1.0 or 2.0 mg/mL total protein concentration) were preincubated with varying concentrations of inhibitors at 37° C. After 30 min, FP-Rh or JW912 or HT-01 (1.0 μL, 50 μM in DMSO) was added and the mixture was incubated for another 30 min at 37° C. Reactions were quenched with SDS loading buffer (15 μL-4×) and run on SDS-PAGE. Following gel imaging, serine hydrolase activity was determined by measuring fluorescent intensity of gel bands corresponding to MAGL and FAAH using ImageJ 1.43u software.

MAGL [1] = target: MAGL (Mus musculus (Mouse), UniProt O35678); experiment: as above; conditions: mouse proteome, read-out: MAGL % inh. 1 μM (mouse)
Sequence of MAGL (Mus musculus (Mouse), UniProt O35678) (O35678 whole entry): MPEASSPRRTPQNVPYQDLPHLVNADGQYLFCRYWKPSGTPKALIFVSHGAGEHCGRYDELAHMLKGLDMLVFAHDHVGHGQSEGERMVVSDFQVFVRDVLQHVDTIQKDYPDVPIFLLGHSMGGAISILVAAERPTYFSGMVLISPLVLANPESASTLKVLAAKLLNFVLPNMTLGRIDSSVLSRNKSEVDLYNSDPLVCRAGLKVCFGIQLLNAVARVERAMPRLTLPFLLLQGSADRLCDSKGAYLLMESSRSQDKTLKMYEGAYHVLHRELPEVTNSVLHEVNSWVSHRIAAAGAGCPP
Description: as §1, §2

MAGL [2] = target: MAGL (Homo sapiens (Human), UniProt Q99685); experiment: In vitro competitive activity-based protein profiling, human proteomes (prefrontal cortex or PC3 cell membrane fractions); conditions: human proteome; for inhibition at 1 µM: read-out: MAGL % inh. 1 μM (human)
Sequence of MAGL (Homo sapiens (Human), UniProt Q99685) (Q99685 whole entry): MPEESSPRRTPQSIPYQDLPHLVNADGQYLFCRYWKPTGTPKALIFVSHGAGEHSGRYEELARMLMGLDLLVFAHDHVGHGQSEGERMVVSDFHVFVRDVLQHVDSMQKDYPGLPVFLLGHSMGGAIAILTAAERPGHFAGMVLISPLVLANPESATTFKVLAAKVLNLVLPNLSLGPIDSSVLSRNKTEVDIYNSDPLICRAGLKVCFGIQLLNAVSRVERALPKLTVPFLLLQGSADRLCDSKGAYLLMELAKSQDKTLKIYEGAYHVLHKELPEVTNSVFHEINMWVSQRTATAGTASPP
Description: as §1, §2

Sequence of FAAH (O08914 whole entry): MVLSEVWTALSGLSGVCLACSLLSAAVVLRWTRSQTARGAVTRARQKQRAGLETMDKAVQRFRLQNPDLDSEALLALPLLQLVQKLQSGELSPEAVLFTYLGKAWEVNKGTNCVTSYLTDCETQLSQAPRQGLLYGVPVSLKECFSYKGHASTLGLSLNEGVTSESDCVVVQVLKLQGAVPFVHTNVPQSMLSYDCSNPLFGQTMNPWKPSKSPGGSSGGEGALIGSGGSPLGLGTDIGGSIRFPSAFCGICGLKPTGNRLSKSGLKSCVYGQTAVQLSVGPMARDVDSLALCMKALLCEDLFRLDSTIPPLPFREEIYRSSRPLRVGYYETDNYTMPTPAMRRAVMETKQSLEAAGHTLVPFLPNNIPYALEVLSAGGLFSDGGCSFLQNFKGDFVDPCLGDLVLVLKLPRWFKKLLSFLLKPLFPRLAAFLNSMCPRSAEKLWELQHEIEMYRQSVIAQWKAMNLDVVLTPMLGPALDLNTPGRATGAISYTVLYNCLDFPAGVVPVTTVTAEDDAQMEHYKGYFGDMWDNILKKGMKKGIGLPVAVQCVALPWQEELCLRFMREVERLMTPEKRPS

SMILES: CC(=O)Nc1ccn(C(=O)N2CC3CN(Cc4ccc(Cl)cc4Cl)CC3C2)n1 (stereo not shown) [Example 174, N-(1-(5-(2,4-Dichlorobenzyl)octahydropyrrolo[3,4-c]pyrrole-2-carbonyl)-1H-pyrazol-3-yl)acetamide]
inhibition at 1 µM (FAAH): 50 to 75%
inhibition at 1 µM (MAGL [1]): > 75%

SMILES: CS(=O)(=O)Nc1ccn(C(=O)N2CC3CN(Cc4cccc(Oc5ccc(Cl)cc5)c4)CC3C2)n1 (stereo not shown) [Example 41, N-(1-(5-(3-(4-Chlorophenoxy)benzyl)octahydropyrrolo[3,4-c]pyrrole-2-carbonyl)-1H-pyrazol-3-yl)methanesulfonamide]
inhibition at 1 µM (FAAH): > 75%
inhibition at 1 µM (MAGL [1]): 0 to 25%

SMILES: CC(=O)Nc1ccn(C(=O)N2CC3CN(Cc4ccc(Oc5ccc(Cl)cc5)cc4)CC3C2)n1 (stereo not shown) [Example 44, N-(1-(5-(4-(4-Chlorophenoxy)benzyl)octahydropyrrolo[3,4-c]pyrrole-2-carbonyl)-1H-pyrazol-3-yl)acetamide]
inhibition at 1 µM (FAAH): > 75%
inhibition at 1 µM (MAGL [1]): > 75%

SMILES: CC(=O)Nc1ccn(C(=O)N2C[C@H]3C[C@H](N(C)Cc4ccccc4Cl)C[C@H]3C2)n1 [Example 36, N-(1-((3aR,5s,6aS)-5-((2-Chlorobenzyl)(methyl)amino)octahydrocyclopenta[c]pyrrole-2-carbonyl)-1H-pyrazol-3-yl)acetamide]
inhibition at 1 µM (FAAH): > 75%
inhibition at 1 µM (MAGL [1]): > 75%

SMILES: C[C@H]1CN(C(=O)n2ccc(NS(C)(=O)=O)n2)CCN1Cc1ccc(Cl)c(N2CCCC2)c1 [Example 42, (S)-N-(1-(4-(4-Chloro-3-(pyrrolidin-1-yl)benzyl)-3-methylpiperazine-1-carbonyl)-1H-pyrazol-3-yl)methanesulfonamide]
inhibition at 1 µM (MAGL [2]): > 75%
inhibition at 1 µM (MAGL [1]): > 75%

SMILES: C[C@@H]1CN(Cc2ccc(C(F)(F)F)c(N3CC4COCC4C3)c2)CCN1C(=O)n1ccc(NS(C)(=O)=O)n1 (stereo partly drawn) [Example 180, N-(1-((2R)-2-Methyl-4-(3-(tetrahydro-1H-furo[3,4-c]pyrrol-5(3H)-yl)-4-(trifluoromethyl)benzyl)piperazine-1-carbonyl)-1H-pyrazol-3-yl)methanesulfonamide]
inhibition at 1 µM (MAGL [2]): > 75%
IC50 (MAGL [2]): < 0.1 µM
inhibition at 1 µM (MAGL [1]): > 75%

SMILES: CC(=O)Nc1ccn(C(=O)N2CC3CN(Cc4ccc(Cl)cc4)CC3C2)n1 (stereo not shown) [Example 170, N-(1-(5-(4-Chlorobenzyl)octahydropyrrolo[3,4-c]pyrrole-2-carbonyl)-1H-pyrazol-3-yl)acetamide]
inhibition at 1 µM (FAAH): 50 to 75%
inhibition at 1 µM (MAGL [1]): > 75%

SMILES: CC(C)C(=O)Nc1ccn(C(=O)N2CCN(Cc3ccc(C(F)(F)F)cc3N3CCCC3)CC2)n1 [Example 161, N-(1-(4-(2-(Pyrrolidin-1-yl)-4-(trifluoromethyl)benzyl)piperazine-1-carbonyl)-1H-pyrazol-3-yl)isobutyramide]
inhibition at 1 µM (FAAH): 0 to 25%
inhibition at 1 µM (MAGL [1]): > 75%

SMILES: CC(=O)Nc1ccn(C(=O)N2CC3CN(Cc4ccc(N5CCOCC5)c(C(F)(F)F)c4)CC3C2)n1 (stereo not shown) [Example 171, N-(1-(5-(4-Morpholino-3-(trifluoromethyl)benzyl)octahydropyrrolo[3,4-c]pyrrole-2-carbonyl)-1H-pyrazol-3-yl)acetamide]
inhibition at 1 µM (FAAH): 50 to 75%
inhibition at 1 µM (MAGL [1]): > 75%

SMILES: CC(=O)Nc1ccn(C(=O)N2CCC3(CCN(Cc4cccc(C(F)(F)F)c4)C3)CC2)n1 [Example 175, N-(1-(2-(3-(Trifluoromethyl)benzyl)-2,8-diazaspiro[4.5]decane-8-carbonyl)-1H-pyrazol-3-yl)acetamide]
inhibition at 1 µM (MAGL [2]): > 75%
IC50 (MAGL [2]): < 0.1 µM
inhibition at 1 µM (MAGL [1]): > 75%

SMILES: CC(=O)Nc1ccn(C(=O)N2C[C@H]3C[C@@H](N(C)Cc4ccccc4Cl)C[C@H]3C2)n1 [Example 37, N-(1-((3aR,5r,6aS)-5-((2-Chlorobenzyl)(methyl)amino)octahydrocyclopenta[c]pyrrole-2-carbonyl)-1H-pyrazol-3-yl)acetamide]
inhibition at 1 µM (FAAH): > 75%
inhibition at 1 µM (MAGL [1]): > 75%

Next, values leading:

inhibition at 1 µM (MAGL [2]): > 75%
inhibition at 1 µM (MAGL [1]): > 75%
SMILES: CN(Cc1ccc(Cl)cc1N1CCC(F)CC1)C1(C)CCN(C(=O)n2ccc(NS(C)(=O)=O)n2)CC1 [Example 196, N-(1-(4-((4-Chloro-2-(4-fluoropiperidin-1-yl)benzyl)(methyl)amino)-4-methylpiperidine-1-carbonyl)-1H-pyrazol-3-yl)methanesulfonamide]

inhibition at 1 µM (MAGL [2]): > 75%
inhibition at 1 µM (MAGL [1]): > 75%
SMILES: C[C@H]1CN(C(=O)n2ccc(NS(C)(=O)=O)n2)CCN1Cc1ccc(C(F)(F)F)c(N2CC[C@H](F)C2)c1 [Example 192, N-(1-((S)-4-(3-((S)-3-Fluoropyrrolidin-1-yl)-4-(trifluoromethyl)benzyl)-3-methylpiperazine-1-carbonyl)-1H-pyrazol-3-yl)methanesulfonamide]

inhibition at 10 µM (MAGL [2]; 10 μM, read-out: MAGL % inh. (human) @ 10 μM): 50 to 75%
inhibition at 1 µM (MAGL [1]): 0 to 25%
SMILES: C[C@H]1C[C@@H](N(C)Cc2ccc(Cl)c(N3CC4COCC4C3)c2)CCN1C(=O)n1ccc(NS(C)(=O)=O)n1 (stereo partly drawn) [Example 194, N-(1-((2S,4S)-4-((4-chloro-3-(Tetrahydro-1H-furo[3,4-c]pyrrol-5(3H)-yl)benzyl)(methyl)amino)-2-methylpiperidine-1-carbonyl)-1H-pyrazol-3-yl)methanesulfonamide]

inhibition at 1 µM (MAGL [2]): > 75%
inhibition at 1 µM (MAGL [1]): > 75%
SMILES: CS(=O)(=O)Nc1ccn(C(=O)N2CC[C@H](Oc3ccc(C(F)(F)F)c(N4CCC(F)CC4)c3)[C@@H](F)C2)n1 [Example 210, N-(1-((3S,4S)-3-Fluoro-4-(3-(4-fluoropiperidin-1-yl)-4-(trifluoromethyl)phenoxy)piperidine-1-carbonyl)-1H-pyrazol-3-yl)methanesulfonamide]

inhibition at 1 µM (MAGL [2]): > 75%
inhibition at 1 µM (MAGL [1]): > 75%
SMILES: CC(=O)Nc1ccn(C(=O)N2CC3CN(Cc4cc(C(F)(F)F)cc(C5(C(=O)O)CCCC5)c4)CC3C2)n1 (stereo not shown) [Example 191, 1-(3-((5-(3-Acetamido-1H-pyrazole-1-carbonyl)hexahydropyrrolo[3,4-c]pyrrol-2(1H)-yl)methyl)-5-(trifluoromethyl)phenyl)cyclopentane-1-carboxylic acid]

inhibition at 1 µM (MAGL [2]): > 75%
IC50 (MAGL [2]): < 0.1 µM
inhibition at 1 µM (MAGL [1]): > 75%
SMILES: CS(=O)(=O)Nc1ccn(C(=O)N2CCN(Cc3ccc(C(F)(F)F)c(N4CC5COCC5C4)c3)CC2)n1 (stereo not shown) [Example 181, N-(1-(4-(3-(Tetrahydro-1H-furo[3,4-c]pyrrol-5(3H)-yl)-4-(trifluoromethyl)benzyl)piperazine-1-carbonyl)-1H-pyrazol-3-yl)methanesulfonamide]

inhibition at 1 µM (MAGL [2]): > 75%
inhibition at 1 µM (MAGL [1]): > 75%
SMILES: C[C@@H]1CN(C(=O)n2ccc(NS(C)(=O)=O)n2)CCN1Cc1ccc(Cl)c(N2CCC(C(F)(F)F)CC2)c1 [Example 202, (R)-N-(1-(4-(4-Chloro-3-(4-(trifluoromethyl)piperidin-1-yl)benzyl)-3-methylpiperazine-1-carbonyl)-1H-pyrazol-3-yl)methanesulfonamide]

inhibition at 1 µM (MAGL [2]): > 75%
IC50 (MAGL [2]): < 0.1 µM
inhibition at 1 µM (MAGL [1]): > 75%
SMILES: C[C@H]1CN(C(=O)n2ccc(NS(C)(=O)=O)n2)CCN1Cc1ccc(C(F)(F)F)c(N2CCC(F)CC2)c1 [Example 187, (S)-N-(1-(4-(3-(4-Fluoropiperidin-1-yl)-4-(trifluoromethyl)benzyl)-3-methylpiperazine-1-carbonyl)-1H-pyrazol-3-yl)methanesulfonamide]

inhibition at 1 µM (MAGL [2]): > 75%
IC50 (MAGL [2]): < 0.1 µM
inhibition at 1 µM (MAGL [1]): > 75%
SMILES: CN(Cc1cc(Cl)ccc1C(F)(F)F)CC1CCN(C(=O)n2ccc(NS(C)(=O)=O)n2)CC1 [Example 184, N-(1-(4-(((5-Chloro-2-(trifluoromethyl)benzyl)(methyl)amino)methyl)piperidine-1-carbonyl)-1H-pyrazol-3-yl)methanesulfonamide]

inhibition at 1 µM (MAGL [2]): > 75%
inhibition at 1 µM (MAGL [1]): > 75%
SMILES: CS(=O)(=O)Nc1ccn(C(=O)N2CCC3(CCCN3Cc3ccc(Cl)c(N4CCCC4)c3)CC2)n1 [Example 195, N-(1-(1-(4-Chloro-3-(pyrrolidin-1-yl)benzyl)-1,8-diazaspiro[4.5]decane-8-carbonyl)-1H-pyrazol-3-yl)methanesulfonamide]

inhibition at 1 µM (MAGL [2]): > 75%
inhibition at 1 µM (MAGL [1]): > 75%
SMILES: C[C@H]1CN(C(=O)n2ccc(NS(C)(=O)=O)n2)CCN1Cc1cc(N2CCC(F)CC2)c(Cl)cn1 [Example 223, (S)-N-(1-(4-((5-Chloro-4-(4-fluoro-piperidin-1-yl)pyridin-2-yl)methyl)-3-methyl-piperazine-1-carbonyl)-1H-pyrazol-3-yl)methane-sulfonamide]

inhibition at 1 µM (MAGL [2]): > 75%
inhibition at 1 µM (MAGL [1]): > 75%
SMILES: CS(=O)(=O)Nc1ccn(C(=O)N2CCC(OCc3ccc(Cl)c(N4CCC(F)CC4)c3)CC2)n1 [Example 209, N-(1-(4-((4-Chloro-3-(4-fluoropiperidin-1-yl)benzyl)oxy)piperidine-1-carbonyl)-1H-pyrazol-3-yl)methanesulfonamide]

inhibition at 1 µM (MAGL [2]): > 75%
inhibition at 1 µM (MAGL [1]): > 75%
SMILES: C[C@@H]1CN(C(=O)n2ccc(NS(C)(=O)=O)n2)CCN1Cc1ccc(Cl)c(N2CCCC2)c1 [Example 224, (R)-N-(1-(4-(4-Chloro-3-(pyrrolidin-1-yl)benzyl)-3-methyl-piperazine-1-carbonyl)-1H-pyrazol-3-yl)methane-sulfonamide]

inhibition at 1 µM (MAGL [2]): > 75%
inhibition at 1 µM (MAGL [1]): > 75%
SMILES: C[C@@H]1CN(C(=O)n2ccc(NS(C)(=O)=O)n2)CCN1Cc1ccc(Cl)c(N2CCC[C@H]2C)c1 [Example 200, N-(1-((R)-4-(4-Chloro-3-((R)-2-methylpyrrolidin-1-yl)benzyl)-3-methylpiperazine-1-carbonyl)-1H-pyrazol-3-yl)methanesulfonamide]
